Our source for the relative viability values is the supplement of paper PMC10307832.

What all share (assay): relative viability (nuclei count vs DMSO), 5 days (fraction); higher = more cells survive
Compound in assay [1]: COc1ccc(-c2ccc3c(N4CCOC[C@@H]4C)nc(N4CCOC[C@@H]4C)nc3n2)cc1CO [AZD8055] + Nc1nc2[nH]cc(CCc3ccc(C(=O)N[C@@H](CCC(=O)O)C(=O)O)cc3)c2c(=O)[nH]1 [Pemetrexed] (partner 0.2 µM)
The procedure, abridged:
(§1)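 A single step with final 0.05% Triton X-100, 1% formaldehyde and 1 ug/ml Hoechst fixed the cells and stained nuclei 5 days after treatment. Lung cancer cell lines in 1536-well plates had been treated by pin tool the day after seeding with one drug alone or a fixed anchor-drug dose plus five library-drug doses (not always all listed) in √10 steps, and nuclei were counted on 4× images. Relative viability is the ratio of nuclei in treated wells to nuclei in vehicle wells, taken as the median of duplicate plates.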

Compound in assay [2]: COc1ccc(-c2ccc3c(N4CCOC[C@@H]4C)nc(N4CCOC[C@@H]4C)nc3n2)cc1CO [AZD8055] + CC(=O)Nc1cccc(-n2c(=O)n(C3CC3)c(=O)c3c(Nc4ccc(I)cc4F)n(C)c(=O)c(C)c32)c1 [Trametinib] (partner 0.02 µM)
The procedure, abridged:
as §1

Compound in assay [3]: COc1ccc(-c2ccc3c(N4CCOC[C@@H]4C)nc(N4CCOC[C@@H]4C)nc3n2)cc1CO [AZD8055] + CC1(C)CCC(c2ccc(Cl)cc2)=C(CN2CCN(c3ccc(C(=O)NS(=O)(=O)c4ccc(N[C@H](CCN5CCOCC5)CSc5ccccc5)c(S(=O)(=O)C(F)(F)F)c4)cc3)CC2)C1 [Navitoclax] (partner 0.5 µM)
The method in brief: as §1

Compound in assay [4]: COc1ccc(-c2ccc3c(N4CCOC[C@@H]4C)nc(N4CCOC[C@@H]4C)nc3n2)cc1CO [AZD8055] + N=C(N)NC(=N)NCCc1ccccc1 [Phenformin] (partner 250 µM)
The procedure, abridged:
as §1

For RERF-LC-KJ, the relative viability in assay [1] (first compound 0.01 µM) was found to be 0.51; in assay [1] (first compound 0.03162 µM), 0.499; in assay [1] (first compound 0.1 µM), 0.428; in assay [1] (first compound 0.3162 µM) it was 0.396; in assay [1] (first compound 1 µM), 0.373; in assay [2] (first compound 0.01 µM), 0.871. In addition, the relative viability in assay [2] (first compound 0.03162 µM) worked out at 0.816; in assay [2] (first compound 0.1 µM), 0.649; in assay [2] (first compound 0.3162 µM), 0.378; in assay [2] (first compound 1 µM), 0.38; in assay [3] (first compound 0.01 µM), 0.925; in assay [3] (first compound 0.03162 µM), 0.838. Further, the relative viability in assay [3] (first compound 0.1 µM) was determined as 0.586; in assay [3] (first compound 0.3162 µM), 0.428; in assay [3] (first compound 1 µM) it was 0.333; in assay [4] (first compound 0.01 µM), 0.374; in assay [4] (first compound 0.03162 µM), 0.378; in assay [4] (first compound 0.1 µM), 0.383. Besides, the relative viability in assay [4] (first compound 0.3162 µM) and in assay [4] (first compound 1 µM) was 0.303 in each case.
As for LOU-NH91, the relative viability in assay [1] (first compound 0.01 µM) is 0.466; in assay [1] (first compound 0.03162 µM), 0.433; in assay [1] (first compound 0.1 µM), 0.5; in assay [1] (first compound 0.3162 µM), 0.507; in assay [1] (first compound 1 µM), 0.469; in assay [2] (first compound 0.01 µM), 0.765. Besides, the relative viability in assay [2] (first compound 0.03162 µM) amounted to 0.74; in assay [2] (first compound 0.1 µM), 0.64; in assay [2] (first compound 0.3162 µM), 0.564; in assay [2] (first compound 1 µM) it was 0.587; in assay [3] (first compound 0.01 µM), 0.708; in assay [3] (first compound 0.03162 µM) it was 0.642. The relative viability is 0.587 in assay [3] (first compound 0.1 µM); 0.466 in assay [3] (first compound 0.3162 µM); 0.437 in assay [3] (first compound 1 µM); 0.678 in assay [4] (first compound 0.01 µM); 0.711 in assay [4] (first compound 0.03162 µM); 0.532 in assay [4] (first compound 0.1 µM). The relative viability in assay [4] (first compound 0.3162 µM) turned out to be 0.49; in assay [4] (first compound 1 µM), 0.455.
Regarding NCI-H2347, the relative viability in assay [1] (first compound 0.01 µM) came to 0.456; in assay [1] (first compound 0.03162 µM) it was 0.449; in assay [1] (first compound 0.1 µM) it was 0.442; in assay [1] (first compound 0.3162 µM), 0.414; in assay [1] (first compound 1 µM), 0.435; in assay [2] (first compound 0.01 µM), 0.282. Moreover, the relative viability in assay [2] (first compound 0.03162 µM) amounted to 0.299; in assay [2] (first compound 0.1 µM) it was 0.277; in assay [2] (first compound 0.3162 µM) it was 0.233; in assay [2] (first compound 1 µM) it was 0.233; in assay [3] (first compound 0.01 µM) it was 0.859; in assay [3] (first compound 0.03162 µM), 0.595. Moreover, the relative viability in assay [3] (first compound 0.1 µM) was determined as 0.453; in assay [3] (first compound 0.3162 µM), 0.339; in assay [3] (first compound 1 µM) it was 0.24; in assay [4] (first compound 0.01 µM) it was 0.381; in assay [4] (first compound 0.03162 µM), 0.283; in assay [4] (first compound 0.1 µM) it was 0.338. The relative viability in assay [4] (first compound 0.3162 µM) amounted to 0.178; in assay [4] (first compound 1 µM), 0.205.
With NCI-H2126, the relative viability in assay [1] (first compound 0.01 µM) turned out to be 0.693; in assay [1] (first compound 0.03162 µM), 0.622; in assay [1] (first compound 0.1 µM) it was 0.649; in assay [1] (first compound 0.3162 µM), 0.579; in assay [1] (first compound 1 µM), 0.401; in assay [2] (first compound 0.01 µM), 0.544. For the same cell line, the relative viability was 0.469 in assay [2] (first compound 0.03162 µM); 0.424 in assay [2] (first compound 0.1 µM); 0.294 in assay [2] (first compound 0.3162 µM); 0.359 in assay [2] (first compound 1 µM); 0.801 in assay [3] (first compound 0.01 µM); 0.763 in assay [3] (first compound 0.03162 µM). Also, the relative viability in assay [3] (first compound 0.1 µM) was 0.641; in assay [3] (first compound 0.3162 µM), 0.487; in assay [3] (first compound 1 µM), 0.345; in assay [4] (first compound 0.01 µM), 0.488; in assay [4] (first compound 0.03162 µM), 0.503; in assay [4] (first compound 0.1 µM), 0.438. In addition, the results for the relative viability in assay [4] (first compound 0.3162 µM) and in assay [4] (first compound 1 µM) were 0.349 and 0.379, respectively.
